Laboratory results published in ChEMBL document CHEMBL3352640, “Carbonic anhydrase inhibitors: design, synthesis, and biological evaluation of novel sulfonyl semicarbazide derivatives” (ACS Med Chem Lett, 2014).

Molecular target: Carbonic anhydrase 9 (Homo sapiens, UniProt Q16790)
Assay: Inhibition of human carbonic anhydrase 9 preincubated for 15 mins by stopped flow CO2 hydration assay

Row | Structure (SMILES) | Ki [nM]
1 | CC(=O)Nc1ccc(S(=O)(=O)NNC(=O)Nc2ccc(S(N)(=O)=O)cc2)cc1 | 81.3
2 | NS(=O)(=O)c1ccc(NC(=O)NNS(=O)(=O)c2ccc([N+](=O)[O-])cc2)cc1 | 20.5
3 | NS(=O)(=O)c1ccc(NC(=O)NNS(=O)(=O)c2ccc(F)cc2)cc1 | 25.1
4 | NS(=O)(=O)c1ccc(NC(=O)NNS(=O)(=O)c2ccc(Cl)cc2)cc1 | 23.1
5 | Cc1ccc(S(=O)(=O)NNC(=O)Nc2ccc(S(N)(=O)=O)cc2)cc1 | 24
6 | COc1ccc(S(=O)(=O)NNC(=O)Nc2ccc(S(N)(=O)=O)cc2)cc1 | 80.4

Second part, the compound after the results:

Row | Ki [nM] | Structure (SMILES)
7 | 73.9 | NS(=O)(=O)c1ccc(NC(=O)NNS(=O)(=O)c2ccccc2)cc1
8 | 30.4 | NS(=O)(=O)c1ccc(NC(=O)NNS(=O)(=O)c2ccc(Br)cc2)cc1
9 | 38.7 | NS(=O)(=O)c1ccc(NC(=O)NNS(=O)(=O)c2ccc(Cl)c([N+](=O)[O-])c2)cc1
